Measurements taken from US4032654A, “Water-soluble, liquid concentrates of S-methyl-[(methyl-carbamoyl)oxy]-thioacetimidate and methyl N', N'-dimethyl-N-[(methyl-carbamoyl)oxy]-1-thiooxamimidate” (priority 1975, dated 1977).
In brackets after ≈: the same amount, converted by molar mass. Several values for one entry are separate records, joined by “and”; a condition that tells them apart may be missing. Identical values can stand only once. Like-named read-outs stand apart in the source and are kept apart here.

Experiments:
[1] = Method: Methomyl and/or oxamyl were added to a solvent system consisting of 60% cyclohexanone, 10% methanol and 30% water at room temperature at a concentration higher than the solubility limit at -6° C. The methomyl and oxamyl were added together, at weight ratios of 2:1, 1:1 and 1:2.5. The solutions were cooled to -6° C. and seeded with methomyl and/or oxamyl to initiate crystallization. The solutions remained at -6° C. until equilibrium was assured. The supernatant liquid in each sample was analyzed for methomyl and oxamyl by liquid chromatography.
physchem [2] = settings: for solubility: Oxamyl alone in solvent
Method: Solubility of Methomyl and Oxamyl (2:1 wt. ratio) in CH3 OH/H2 O at -6° C.
(§1) Methomyl and oxamyl were added to various methanol:water solvent systems ranging from 100 wt. % CH3 OH to 30 wt. % CH3 OH:70 wt. % H2 O. The methomyl and oxamyl were dissolved in a 2:1 weight ratio of 50 wt. % methomyl to 25 wt. % oxamyl in the solvent systems. The samples were equilibrated at -6° C. in a constant temperature freezer after which they were seeded with methomyl and oxamyl crystals to ensure crystallization of both materials. After crystal-liquid equilibrium was assured, liquid was removed at -6° C. and assayed for methomyl and oxamyl. Solids were also removed at -6° C., washed with hexane and dried. The solids were then dissolved in methanol to yield a 10 wt. % solution. This solution was evaluated by thin layer chromatography (TLC) to ensure the solids consisted of both methomyl and oxamyl.

physchem [3] = settings: for solubility: Oxamyl alone in solvent; remark: listed apart in the source
Method: Methomyl and oxamyl were added to various methanol:water solvent systems ranging from 100% CH3 OH to 40% CH3 OH:60% H2 O. The methomyl and oxamyl were dissolved separately or combined on a 1:1 weight ratio in the solvent systems at room temperature at a concentration exceeding the solubility limit at -6° C. Each sample was seeded with methomyl and/or oxamyl at -6° C. and allowed to crystallize until equilibrium was established. The supernatant liquid of each sample was assayed for methomyl and/or oxamyl by liquid chromatography.

[4] = remark: listed apart in the source
Method: Solubility of Methomyl and Oxamyl 80:20 Wt. Ratio Acetone:H2 O
Methomyl and oxamyl were dissolved in a solvent system consisting of 80 wt. % acetone and 20 wt. % water separately and in 1:1, 2:1 and 1:2.5 wt. ratios of methomyl and oxamyl. These solutions were equilibrated at -6° C. and were seeded with methomyl and/or oxamyl. They remained at -6° C. until solid-liquid equilibrium was assured. Liquid was removed from each sample at -6° C. and assayed for methomyl and oxamyl. Solids were also removed at -6° C., washed, dried and dissolved in methanol to yield a 10 wt. % solution which was evaluated by TLC for oxamyl and methomyl.

physchem [5] = settings: for solubility: Oxamyl alone in solvent; remark: listed apart in the source
Method: as §1, with “The methomyl and oxamyl were dissolved in a 2:1 weight ratio of 50 wt. % methomyl to 25 wt. % oxamyl in the solvent systems.” left out
Solubility of Methomyl and Oxamyl 1:2.5 wt. ratio in CH3 OH:H2 O at -6° C.
Example 3 was repeated by dissolving methomyl and oxamyl in a 1:2.5 weight ratio in the same solvent systems under the same conditions.

[6] = remark: listed apart in the source
Method: Methomyl and Oxamyl Solubility In Cyclohexanone, Cyclohexanol, CH3 OH and H2 O at -6° C.
Methomyl and oxamyl were dissolved separately and in weight ratios of 1:1, 2:1 and 1:2.5 methomyl to oxamyl in a solvent system consisting of 30 wt. % cyclohexanone, 30 wt. % cyclohexanol, 30 wt. % water and 10 wt. % methanol. These solutions were equilibrated at -6° C. and seeded with methomyl and/or oxamyl crystals. The samples of liquid and solids remained at -6° C. until solid-liquid equilibrium was assured. A liquid sample was removed from each at -6° C. and assayed for methomyl and/or oxamyl. Solids were also isolated at -6° C., washed, dried and dissolved in CH3 OH to yield a 10% solution which was analyzed by TLC to ensure both methomyl and oxamyl crystals were present in the solids of the combination sample. All such solids contained both oxamyl and methomyl.
SOLUBILITY OF METHOMYL AND OXAMYL (2:1, 1:1 and 1:2.5 Wt.
RATIOS) IN CYCLOHEXANONE, CYCLOHEXANOL, CH3 OH AND H2 O

Question: Which “Solubility, both actives in solvent: Oxamyl” value (shortened to “Solubility, both actives”) [1] does the source give for `CNC(=O)ON=C(SC)C(=O)N(C)C` [Oxamyl, methyl N',N'-dimethyl-N-[(methylcarbamoyl)oxy]-1-thiooxamimidate] here?
Answer: Its value is 84.8 gms/100 gms solvent and 80.1 gms/100 gms solvent and 82.7 gms/100 gms solvent.

Question: What about the “Solubility, Oxamyl alone in solvent” value ([1]; alone, 60% cyclohexanone, 10% methanol, 30% water, -6° C.) of the same compound?
Answer: The value was 48.4 gms/100 gms solvent.

Question: What about the “Solubility, both actives” value (physchem [2]) of the same compound?
Answer: Its value is 113 gms/100 gms.

Question: And the solubility (physchem [2]; 40/60 ch3oh/h2o, alone, -6° C.)?
Answer: Its solubility is 209 mg/mL (≈ 953 mM).

Question: What about the solubility (physchem [2]; 50/50 ch3oh/h2o, alone, -6° C.) of the same compound?
Answer: The solubility was 290 mg/mL (≈ 1320 mM).

Question: What about the solubility (physchem [2]; 60/40 ch3oh/h2o, alone, -6° C.) of the same compound?
Answer: Its solubility is 397 mg/mL (≈ 1810 mM).

Question: What about the solubility (physchem [2]; 70/30 ch3oh/h2o, alone, -6° C.) of the same compound?
Answer: Its solubility is 422 mg/mL (≈ 1920 mM).

Question: What about the solubility (physchem [2]; 80/20 ch3oh/h2o, alone, -6° C.) of the same compound?
Answer: The solubility was 447 mg/mL (≈ 2040 mM).

Question: What about the solubility (physchem [2]; 90/10 ch3oh/h2o, alone, -6° C.) of the same compound?
Answer: The solubility was 406 mg/mL (≈ 1850 mM).

Question: And the “Solubility, Oxamyl alone in solvent” value (physchem [2]; alone, 100/0 CH3OH/H2O, -6° C.)?
Answer: Its value is 33.3 gms/100 gms.

Question: And the “Solubility change when dissolved in combination” value (physchem [2]; methanol:water solvent systems, 2:1 wt. ratio dissolved initially, -6° C.)?
Answer: Its value is “increased”.

Question: And the “Solubility, both actives” value (physchem [3])?
Answer: The value was 80 gms/100 gms.

Question: What about the solubility (physchem [3]; 40/60 ch3oh/h2o, alone, -6° C.) of the same compound?
Answer: The solubility was 209 mg/mL (≈ 953 mM).

Question: And the solubility (physchem [3]; 50/50 ch3oh/h2o, alone, -6° C.)?
Answer: The solubility was 290 mg/mL (≈ 1320 mM).

Question: And the solubility (physchem [3]; 60/40 ch3oh/h2o, alone, -6° C.)?
Answer: Its solubility is 397 mg/mL (≈ 1810 mM).

Question: What about the solubility (physchem [3]; 70/30 ch3oh/h2o, alone, -6° C.) of the same compound?
Answer: Its solubility is 422 mg/mL (≈ 1920 mM).

Question: And the solubility (physchem [3]; 80/20 ch3oh/h2o, alone, -6° C.)?
Answer: The solubility was 447 mg/mL (≈ 2040 mM).

Question: What about the solubility (physchem [3]; 90/10 ch3oh/h2o, alone, -6° C.) of the same compound?
Answer: Its solubility is 406 mg/mL (≈ 1850 mM).

Question: And the “Solubility, Oxamyl alone in solvent” value (physchem [3]; alone, 100/0 CH3OH/H2O, -6° C.)?
Answer: Its value is 33.3 gms/100 gms.

Question: What about the “Solubility when dissolved together in the solvents taught” value (physchem [3]; summary of Examples 2-7) of the same compound?
Answer: The value was “increases in solubility occur”.

Question: What about the “Solubility, both actives” value [4] of the same compound?
Answer: Its value is 84.6 gms/100 gms solvent and 79.3 gms/100 gms solvent and 82.8 gms/100 gms solvent.

Question: And the “Solubility, Oxamyl alone in solvent” value ([4]; alone, 80:20 wt acetone/H2O, -6° C.)?
Answer: Its value is 52.0 gms/100 gms solvent.

Question: What about the “Solubility, both actives” value (physchem [5]) of the same compound?
Answer: The value was 72.3 gms/100 gms.

Question: And the solubility (physchem [5]; 40/60 ch3oh/h2o, alone, -6° C.)?
Answer: Its solubility is 209 mg/mL (≈ 953 mM).

Question: And the solubility (physchem [5]; 50/50 ch3oh/h2o, alone, -6° C.)?
Answer: Its solubility is 291 mg/mL (≈ 1330 mM).

Question: What about the solubility (physchem [5]; 60/40 ch3oh/h2o, alone, -6° C.) of the same compound?
Answer: The solubility was 396 mg/mL (≈ 1810 mM).

Question: And the solubility (physchem [5]; 70/30 ch3oh/h2o, alone, -6° C.)?
Answer: The solubility was 423 mg/mL (≈ 1930 mM).

Question: What about the solubility (physchem [5]; 80/20 ch3oh/h2o, alone, -6° C.) of the same compound?
Answer: Its solubility is 448 mg/mL (≈ 2040 mM).

Question: And the solubility (physchem [5]; 90/10 ch3oh/h2o, alone, -6° C.)?
Answer: Its solubility is 404 mg/mL (≈ 1840 mM).

Question: And the “Solubility, Oxamyl alone in solvent” value (physchem [5]; alone, 100/0 CH3OH/H2O, -6° C.)?
Answer: Its value is 33.3 gms/100 gms.

Question: What about the “Solubility, both actives” value [6] of the same compound?
Answer: Its value is 83.0 gms/100 gms solvent and 63.7 gms/100 gms solvent and 61.8 gms/100 gms solvent.

Question: And the “Solubility, Oxamyl alone in solvent” value ([6]; alone, 30% cyclohexanone, 30% cyclohexanol, 30% water, 10% methanol, -6° C.)?
Answer: The value was 41.5 gms/100 gms solvent.
